Converted amounts (≈) assume the structure as drawn.

Assay [1] has as its system ART24. The assay is described as follows: Antibiotic susceptibility of ART24, MIC, VetMIC Lact-1 & Lact-2 panels (Table 6). The conditions noted are these: 24 hr at 37° C., average results from N = 6; for MIC: Bacillus amyloliquefaciens, read-out: ART24 MIC. It is filed as cell-based, Bacillus amyloliquefaciens. The procedure:
The minimum inhibitory concentration (MIC) of the listed antimicrobials is expressed as μg/mL. […] From this suspension 46 μL was transferred in to 23 mL of 90% Iso-Sensitest Broth (CM0473, Oxoid) containing 10% BHI broth to end with a final inoculum concentration of 5×10^5 CFU/mL. The wells of the prefabricated 96-well plates were filled with 100 μL of the final suspension. The plates were sealed with an […], Sigma Aldrich) sealing film (to facilitate growth of the […] strains. The plates were then incubated for 24 hr at 37° C. The results are recorded after 24 hours as the lowest concentration of the antibiotic to inhibit visible growth. The prefabricated panels […], Uppsala, Sweden) comprising the antibiotics ampicillin, vancomycin, gentamicin, kanamycin, streptomycin, erythromycin, clindamycin, tetracycline, chloramphenicol, neomycin, penicillin, quinupristin-dalfopristin, linezolid, trimethoprim, ciprofloxacin and rifampicin were used.

The subject of assay [2] is ART24. The assay is described as follows: Additional EFSA-recommended MIC studies on ART24 lots and cell banks (Table 7). It is filed as cell-based, Bacillus amyloliquefaciens. The procedure: The minimum inhibitory concentration (MIC) of the listed antimicrobials is expressed as μg/mL. Additional studies following EFSA testing recommendations were performed on lyophilized ART24 lots CO-33-10A2 and CO-33-12A2 and Research and Master Cell Banks CO-33-ART24 BHI and CO-33-ART24 SYD, and those results are shown in Table 7.

[3] abbreviates: source CO-33-10A2 (lyophilized lot).
[4] abbreviates: source CO-33-12A2 (lyophilized lot).
Where [5] appears, read: Bacillus amyloliquefaciens, source CO-33-10A2 (lyophilized lot), read-out: MIC.
[6] abbreviates: Bacillus amyloliquefaciens, source CO-33-12A2 (lyophilized lot), read-out: MIC.
The mark [7] stands for this setting: Bacillus amyloliquefaciens, source CO-33 ART 24 BHI, read-out: MIC.
The mark [8] stands for this setting: Bacillus amyloliquefaciens, source CO-33 ART 024 SYD, read-out: MIC.

For Neomycin, in assay [1], the “ART24 MIC” value was not above 0.5 µg/mL. Also, the MIC in assay [2] (setting [3]), in assay [2] (setting [4]), in assay [2] (source CO-33 ART 24 BHI) and in assay [2] (source CO-33 ART 024 SYD) was not above 0.12 µg/mL in each case.
`NC[C@H]1O[C@H](O[C@H]2[C@H](O)[C@@H](O[C@H]3O[C@H](CO)[C@@H](O)[C@H](N)[C@H]3O)[C@H](N)C[C@@H]2N)[C@H](O)[C@@H](O)[C@@H]1O` [Kanamycin]: the MIC was not above 2 µg/mL in assay [1]; not above 0.5 µg/mL in assay [2] (setting [5]); not above 0.5 µg/mL in assay [2] (setting [6]); not above 0.5 µg/mL in assay [2] (setting [7]); not above 0.5 µg/mL in assay [2] (setting [8]). For the same compound, the MIC interpretation entry in assay [2] (source CO-33-10A2), in assay [2] (source CO-33-12A2), in assay [2] (source CO-33 ART 24 BHI) and in assay [2] (source CO-33 ART 024 SYD) was “(S)” throughout.
Regarding `COc1cc(Cc2cnc(N)nc2N)cc(OC)c1OC` [Trimethoprim], the MIC in assay [1] was less than 0.12 µg/mL; in assay [2] (setting [5]) it was not above 0.25 µg/mL; in assay [2] (setting [6]), less than 0.25 µg/mL; in assay [2] (setting [7]) it was less than 0.25 µg/mL; in assay [2] (setting [8]) it was less than 0.25 µg/mL.
Consider `CC[C@H]1OC(=O)[C@H](C)[C@@H](O[C@H]2C[C@@](C)(OC)[C@@H](O)[C@H](C)O2)[C@H](C)[C@@H](O[C@@H]2O[C@H](C)C[C@H](N(C)C)[C@H]2O)[C@](C)(O)C[C@@H](C)C(=O)[C@H](C)[C@@H](O)[C@]1(C)O` [Erythromycin], for which the minimal inhibitory concentration (MIC) in assay [1] came out at 0.12 µg/mL (≈ 0.164 µM); in assay [2] (setting [5]), 0.06 µg/mL (≈ 0.0818 µM); in assay [2] (setting [6]), 0.06 µg/mL (≈ 0.0818 µM); in assay [2] (setting [7]), 0.12 µg/mL (≈ 0.164 µM); in assay [2] (setting [8]), 0.12 µg/mL (≈ 0.164 µM). Moreover, the MIC interpretation result in assay [2] (source CO-33-10A2), in assay [2] (source CO-33-12A2), in assay [2] (source CO-33 ART 24 BHI) and in assay [2] (source CO-33 ART 024 SYD) was “(S)” in each case.
As for `CN(C)[C@@H]1C(O)=C(C(N)=O)C(=O)[C@@]2(O)C(O)=C3C(=O)c4c(O)cccc4[C@@](C)(O)[C@H]3C[C@@H]12` [Tetracycline], the MIC in assay [1] stood at 4 µg/mL (≈ 9 µM); in assay [2] (setting [5]) it was 2 µg/mL (≈ 4.5 µM); in assay [2] (setting [6]), 2 µg/mL (≈ 4.5 µM); in assay [2] (setting [7]) it was 2 µg/mL (≈ 4.5 µM); in assay [2] (setting [8]), 2 µg/mL (≈ 4.5 µM). Also, the MIC interpretation result in assay [2] (source CO-33-10A2), in assay [2] (source CO-33-12A2), in assay [2] (source CO-33 ART 24 BHI) and in assay [2] (source CO-33 ART 024 SYD) was “(S)” throughout.
With `CC(=O)NC[C@H]1CN(c2ccc(N3CCOCC3)c(F)c2)C(=O)O1` [Linezolid], the minimum inhibitory concentration (MIC) in assay [1] was 0.5 µg/mL (≈ 1.48 µM); in assay [2] (setting [5]), 0.25 µg/mL (≈ 0.741 µM); in assay [2] (setting [6]), 0.5 µg/mL (≈ 1.48 µM); in assay [2] (setting [7]), 0.5 µg/mL (≈ 1.48 µM); in assay [2] (setting [8]), 0.5 µg/mL (≈ 1.48 µM).
Consider Penicillin, for which, in assay [1], the “ART24 MIC” value lay in the range of 0.12 to 0.5 µg/mL. For the same compound, the MIC interpretation result in assay [2] (source CO-33-10A2), in assay [2] (source CO-33-12A2), in assay [2] (source CO-33 ART 24 BHI) and in assay [2] (source CO-33 ART 024 SYD) was “(S)” each time. Also, the MIC in assay [2] (setting [3]) is not above 0.03 µg/mL; in assay [2] (setting [4]), not above 0.03 µg/mL; in assay [2] (source CO-33 ART 24 BHI), not above 0.03 µg/mL; in assay [2] (source CO-33 ART 024 SYD), 0.06 µg/mL.
As for `CCC[C@@H]1C[C@@H](C(=O)N[C@@H]([C@H]2O[C@H](SC)[C@H](O)[C@@H](O)[C@H]2O)[C@H](C)Cl)N(C)C1` [Clindamycin], the MIC in assay [1] was 0.5 to 1 µg/mL (≈ 1.18 to 2.35 µM); in assay [2] (setting [5]), 0.12 µg/mL (≈ 0.282 µM); in assay [2] (setting [6]) it was 0.25 µg/mL (≈ 0.588 µM); in assay [2] (setting [7]), 0.25 µg/mL (≈ 0.588 µM); in assay [2] (setting [8]), 0.25 µg/mL (≈ 0.588 µM). Moreover, the MIC interpretation result in assay [2] (source CO-33-10A2), in assay [2] (source CO-33-12A2), in assay [2] (source CO-33 ART 24 BHI) and in assay [2] (source CO-33 ART 024 SYD) was “(S)” each time.
Take `O=C(O)c1cn(C2CC2)c2cc(N3CCNCC3)c(F)cc2c1=O` [Ciprofloxacin]: the MIC in assay [1] is not above 0.25 µg/mL; in assay [2] (setting [5]) it was not above 0.03 µg/mL; in assay [2] (setting [6]) it was not above 0.03 µg/mL; in assay [2] (setting [7]), not above 0.03 µg/mL; in assay [2] (setting [8]), not above 0.03 µg/mL. In addition, the MIC interpretation entry in assay [2] (source CO-33-10A2), in assay [2] (source CO-33-12A2), in assay [2] (source CO-33 ART 24 BHI) and in assay [2] (source CO-33 ART 024 SYD) was “(S)” in each case.
On to Gentamicin, for which the “ART24 MIC” value in assay [1] was not above 0.5 µg/mL. For the same compound, the MIC interpretation result in assay [2] (source CO-33-10A2), in assay [2] (source CO-33-12A2), in assay [2] (source CO-33 ART 24 BHI) and in assay [2] (source CO-33 ART 024 SYD) was “(S)” throughout. Also, the MIC in assay [2] (setting [3]), in assay [2] (setting [4]), in assay [2] (source CO-33 ART 24 BHI) and in assay [2] (source CO-33 ART 024 SYD) was not above 0.06 µg/mL in each case.

The record behind these values is US20240358777A1, “COMPOSITIONS COMPRISING BACILLUS AMYLOLIQUEFACIENS FOR PREVENTING AND TREATING ULCERATIVE COLITIS” (Artugen Therapeutics Ltd., priority 2021, published 2024).
